Results published in publication PMC9841576, “Characterisation of C101248: A novel selective THIK-1 channel inhibitor for the modulation of microglial NLRP3-inflammasome” (Neuropharmacology, 2023).
pIC50: −log10 of the molar value. Like-named read-outs stand apart in the source and are kept apart here.

How the values were obtained:
[1] = CNS PK study in mice; format: in vivo; conditions: 30 mg/kg single oral, male mice; for Kp: C57BL/6, mouse, 0.25-2 h post dose
Experimental: In CNS PK studies, rodents (C57BL/6 mice or Sprague Dawley rats) were administered C101248 by oral gavage at 10 or 30 mg/kg. At specified timepoints post dose (0.5, 1, 2 or 4 h), blood samples were collected and processed to plasma (centrifugation at 5000 rpm, 4 °C for 10 min). Immediately following blood withdrawal, cerebrospinal fluid (CSF) samples were collected from the cisterna magna, whole body perfusion was conducted, and brain samples were collected and weighed. Samples were stored frozen at −80 ± 10 °C until analysis. Plasma, CSF, and brain samples were analysed using a fit for purpose bioanalytical method (LC-MS/MS) against a calibration curve containing QC samples. Brain:plasma and CSF:plasma were calculated based on brain concentration/plasma concentration at the same timepoint. Unbound partition coefficient (Kpu,u) values were calculated based on unbound brain concentration/unbound plasma concentration at the same timepoint. Unbound concentrations were derived by adjusting plasma concentrations for the fraction unbound in plasma based on in vitro plasma protein binging (PPB) values and brain concentrations for the unbound fraction in brain tissue based on in vitro brain tissue binding (BTB) values.

[2] = target: T1, THIK-1 (Homo sapiens, UniProt Q9HB14); experiment: Q-Patch automated electrophysiology, HEK-hTHIK-1 cells; format: cell-based
T1 construct: expressed in transfected cells
T1 sequence (Q9HB14 1-408): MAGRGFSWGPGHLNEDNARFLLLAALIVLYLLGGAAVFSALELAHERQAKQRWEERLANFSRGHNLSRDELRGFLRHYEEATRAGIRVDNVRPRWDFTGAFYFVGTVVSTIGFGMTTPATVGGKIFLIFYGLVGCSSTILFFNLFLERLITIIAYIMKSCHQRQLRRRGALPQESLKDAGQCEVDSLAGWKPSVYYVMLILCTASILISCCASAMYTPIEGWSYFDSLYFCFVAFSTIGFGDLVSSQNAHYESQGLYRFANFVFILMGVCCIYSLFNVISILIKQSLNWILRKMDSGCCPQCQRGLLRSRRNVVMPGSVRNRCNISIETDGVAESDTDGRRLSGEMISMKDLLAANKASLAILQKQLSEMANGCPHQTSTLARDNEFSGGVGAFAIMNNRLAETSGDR
Experimental: HEK-293 cells were transfected with human THIK-1, TREK-1, TWIK-2, or mouse THIK-1 cDNA cloned into pcDNA3.1, using either Fugene HD transfection reagent (Promega) or electroporation (MaxCyte STX instrument). Cells stably expressing the relevant genes were selected based on resistance to 500 μg/ml geneticin (Gibco). For human THIK-1 and TWIK-2 expressing cells, monoclonal lines were isolated by limited dilution cloning; mouse THIK-1 and human TREK-1 expressing cells were maintained as polyclonal pools. The HEK-293 pools and monoclones stably expressing the relevant genes were maintained in DMEM (Life Technologies), supplemented with 10% FCIII (HyClone, Fetal clone III) and 500 μg/ml geneticin. A CHO-Kv2.1 cell line was purchased from Millipore (accession NM_004975) and maintained in F12 (Life Technologies), supplemented with 10% FCSIII (Thermo Scientific) and 500 μg/ml geneticin (Life Technologies). For thallium flux assays, banks of frozen cell aliquots were prepared the day prior to assay, cells were thawed into media and seeded into PDL coated 384-well plates (Corning) at 25,000 (human/mouse THIK-1, TREK-1) or 30,000 (TWIK-2) cells/well (25 μl/well). CHO-Kv2.1 cells were seeded into non-PDL coated plates (Corning) at 5000 cells/well. […]
THIK-1 mediated currents were measured using the Q-Patch 48 automated electrophysiology platform (Sophion, Denmark). […]

Question: For `Nc1nonc1-c1nc2ccccc2n1Cc1ccncc1` [C101248], which “time of maximal concentration (Cmax)” value ([1]; brain, CSF and plasma (all matrices)) is on record?
Answer: 1 h

Question: What about the Kp ([1]; CSF / unbound plasma, read-out: CSF:unbound plasma) of the same compound?
Answer: 0.8 to 1.2

Question: What about the Kp ([1]; brain (unbound) / plasma (unbound), read-out: unbound partition coefficient (Kpu,u)) of the same compound?
Answer: 0.7 to 1.5

Question: And the “maximum inhibition (Q-Patch)” value ([2]; HEK-hTHIK-1)?
Answer: 94%

Question: What about the pIC50 ([2]; HEK-hTHIK-1, step to +40 mV, normalised to TPA, read-out: IC50, inhibition of basal currents (Q-Patch)) of the same compound?
Answer: 6.83
